± gives the expanded uncertainty stated by the source.
Test: xn = mol fraction of the nth substance listed
Settings: 308.15 K, Liquid

Q: Which results are given for `CCCCCCCCC` [nonane] + C1CCCCC1?
A: mass density (18340 kPa, x2 = 0.7052): 752.9 ± 1.2 kg/m3; mass density (18340 kPa, x2 = 0.7993): 760 ± 1.2 kg/m3; mass density (18340 kPa, x2 = 0.9039): 769.1 ± 1.2 kg/m3; mass density (20370 kPa, x2 = 0): 721.7 ± 1.5 kg/m3; mass density (20370 kPa, x2 = 0.09303): 724.7 ± 1.5 kg/m3; mass density (20370 kPa, x2 = 0.2009): 728.6 ± 1.5 kg/m3; mass density (20370 kPa, x2 = 0.3051): 732.8 ± 1.5 kg/m3; mass density (20370 kPa, x2 = 0.417): 737.8 ± 1.4 kg/m3; mass density (20370 kPa, x2 = 0.512): 742.4 ± 1.4 kg/m3; mass density (20370 kPa, x2 = 0.5996): 747.6 ± 1.4 kg/m3; mass density (20370 kPa, x2 = 0.7052): 754.4 ± 1.3 kg/m3; mass density (20370 kPa, x2 = 0.7993): 761.5 ± 1.3 kg/m3; mass density (20370 kPa, x2 = 0.9039): 770.6 ± 1.2 kg/m3; mass density (22390 kPa, x2 = 0): 723.1 ± 1.6 kg/m3; mass density (22390 kPa, x2 = 0.09303): 726.1 ± 1.6 kg/m3; mass density (22390 kPa, x2 = 0.2009): 730.1 ± 1.6 kg/m3; mass density (22390 kPa, x2 = 0.3051): 734.3 ± 1.5 kg/m3; mass density (22390 kPa, x2 = 0.417): 739.3 ± 1.5 kg/m3; mass density (22390 kPa, x2 = 0.512): 743.9 ± 1.5 kg/m3; mass density (22390 kPa, x2 = 0.5996): 749.1 ± 1.4 kg/m3; mass density (22390 kPa, x2 = 0.7052): 755.9 ± 1.4 kg/m3; mass density (22390 kPa, x2 = 0.7993): 763 ± 1.3 kg/m3; mass density (22390 kPa, x2 = 0.9039): 772.1 ± 1.3 kg/m3; mass density (24420 kPa, x2 = 0): 724.5 ± 1.7 kg/m3; mass density (24420 kPa, x2 = 0.09303): 727.5 ± 1.7 kg/m3; mass density (24420 kPa, x2 = 0.2009): 731.5 ± 1.6 kg/m3; mass density (24420 kPa, x2 = 0.3051): 735.7 ± 1.6 kg/m3; mass density (24420 kPa, x2 = 0.417): 740.7 ± 1.6 kg/m3; mass density (24420 kPa, x2 = 0.512): 745.3 ± 1.5 kg/m3; mass density (24420 kPa, x2 = 0.5996): 750.5 ± 1.5 kg/m3; mass density (24420 kPa, x2 = 0.7052): 757.4 ± 1.5 kg/m3; mass density (24420 kPa, x2 = 0.7993): 764.4 ± 1.4 kg/m3; mass density (24420 kPa, x2 = 0.9039): 773.6 ± 1.4 kg/m3; mass density (26450 kPa, x2 = 0): 725.9 ± 1.8 kg/m3; mass density (26450 kPa, x2 = 0.09303): 728.9 ± 1.8 kg/m3; mass density (26450 kPa, x2 = 0.2009): 732.9 ± 1.7 kg/m3; mass density (26450 kPa, x2 = 0.3051): 737.1 ± 1.7 kg/m3; mass density (26450 kPa, x2 = 0.417): 742.1 ± 1.6 kg/m3; mass density (26450 kPa, x2 = 0.512): 746.8 ± 1.6 kg/m3; mass density (26450 kPa, x2 = 0.5996): 751.9 ± 1.6 kg/m3; mass density (26450 kPa, x2 = 0.7052): 758.8 ± 1.5 kg/m3; mass density (26450 kPa, x2 = 0.7993): 765.8 ± 1.5 kg/m3; mass density (26450 kPa, x2 = 0.9039): 775.1 ± 1.4 kg/m3; mass density (28470 kPa, x2 = 0): 727.2 ± 1.9 kg/m3; mass density (28470 kPa, x2 = 0.09303): 730.3 ± 1.8 kg/m3; mass density (28470 kPa, x2 = 0.2009): 734.2 ± 1.8 kg/m3; mass density (28470 kPa, x2 = 0.3051): 738.4 ± 1.8 kg/m3; mass density (28470 kPa, x2 = 0.417): 743.5 ± 1.7 kg/m3; mass density (28470 kPa, x2 = 0.512): 748.1 ± 1.7 kg/m3; mass density (28470 kPa, x2 = 0.5996): 753.3 ± 1.6 kg/m3; mass density (28470 kPa, x2 = 0.7052): 760.2 ± 1.6 kg/m3; mass density (28470 kPa, x2 = 0.7993): 767.2 ± 1.5 kg/m3; mass density (28470 kPa, x2 = 0.9039): 776.5 ± 1.5 kg/m3; mass density (29490 kPa, x2 = 0): 727.8 ± 1.9 kg/m3; mass density (29490 kPa, x2 = 0.09303): 730.9 ± 1.9 kg/m3; mass density (29490 kPa, x2 = 0.2009): 734.9 ± 1.8 kg/m3; mass density (29490 kPa, x2 = 0.3051): 739.1 ± 1.8 kg/m3; mass density (29490 kPa, x2 = 0.417): 744.1 ± 1.7 kg/m3; mass density (29490 kPa, x2 = 0.512): 748.7 ± 1.7 kg/m3; mass density (29490 kPa, x2 = 0.5996): 754 ± 1.7 kg/m3; mass density (29490 kPa, x2 = 0.7052): 760.9 ± 1.6 kg/m3; mass density (29490 kPa, x2 = 0.7993): 767.9 ± 1.6 kg/m3; mass density (29490 kPa, x2 = 0.9039): 777.2 ± 1.5 kg/m3; mass density (30500 kPa, x2 = 0): 728.5 ± 1.9 kg/m3; mass density (30500 kPa, x2 = 0.09303): 731.6 ± 1.9 kg/m3; mass density (30500 kPa, x2 = 0.2009): 735.6 ± 1.9 kg/m3; mass density (30500 kPa, x2 = 0.3051): 739.8 ± 1.8 kg/m3; mass density (30500 kPa, x2 = 0.417): 744.8 ± 1.8 kg/m3; mass density (30500 kPa, x2 = 0.512): 749.4 ± 1.7 kg/m3; mass density (30500 kPa, x2 = 0.5996): 754.7 ± 1.7 kg/m3; mass density (30500 kPa, x2 = 0.7052): 761.6 ± 1.7 kg/m3; mass density (30500 kPa, x2 = 0.7993): 768.6 ± 1.6 kg/m3; mass density (30500 kPa, x2 = 0.9039): 777.9 ± 1.5 kg/m3; mass density (32530 kPa, x2 = 0): 729.8 ± 2 kg/m3; mass density (32530 kPa, x2 = 0.09303): 732.9 ± 2 kg/m3; mass density (32530 kPa, x2 = 0.2009): 736.9 ± 1.9 kg/m3; mass density (32530 kPa, x2 = 0.3051): 741.1 ± 1.9 kg/m3; mass density (32530 kPa, x2 = 0.417): 746.1 ± 1.9 kg/m3; mass density (32530 kPa, x2 = 0.512): 750.8 ± 1.8 kg/m3; mass density (32530 kPa, x2 = 0.5996): 756 ± 1.8 kg/m3; mass density (32530 kPa, x2 = 0.7052): 762.9 ± 1.7 kg/m3; mass density (32530 kPa, x2 = 0.7993): 770 ± 1.7 kg/m3; mass density (32530 kPa, x2 = 0.9039): 779.3 ± 1.6 kg/m3; mass density (34550 kPa, x2 = 0): 731.1 ± 2.1 kg/m3; mass density (34550 kPa, x2 = 0.09303): 734.2 ± 2.1 kg/m3; mass density (34550 kPa, x2 = 0.2009): 738.2 ± 2 kg/m3; mass density (34550 kPa, x2 = 0.3051): 742.4 ± 2 kg/m3; mass density (34550 kPa, x2 = 0.417): 747.4 ± 1.9 kg/m3; mass density (34550 kPa, x2 = 0.512): 752 ± 1.9 kg/m3; mass density (34550 kPa, x2 = 0.5996): 757.3 ± 1.8 kg/m3; mass density (34550 kPa, x2 = 0.7052): 764.3 ± 1.8 kg/m3; mass density (34550 kPa, x2 = 0.7993): 771.3 ± 1.7 kg/m3; mass density (34550 kPa, x2 = 0.9039): 780.6 ± 1.7 kg/m3; mass density (36580 kPa, x2 = 0): 732.4 ± 2.2 kg/m3; mass density (36580 kPa, x2 = 0.09303): 735.4 ± 2.1 kg/m3; mass density (36580 kPa, x2 = 0.2009): 739.5 ± 2.1 kg/m3; mass density (36580 kPa, x2 = 0.3051): 743.7 ± 2 kg/m3; mass density (36580 kPa, x2 = 0.417): 748.7 ± 2 kg/m3; mass density (36580 kPa, x2 = 0.512): 753.3 ± 2 kg/m3; mass density (36580 kPa, x2 = 0.5996): 758.6 ± 1.9 kg/m3; mass density (36580 kPa, x2 = 0.7052): 765.6 ± 1.9 kg/m3; mass density (36580 kPa, x2 = 0.7993): 772.6 ± 1.8 kg/m3; mass density (36580 kPa, x2 = 0.9039): 781.9 ± 1.7 kg/m3; mass density (38600 kPa, x2 = 0): 733.6 ± 2.2 kg/m3; mass density (38600 kPa, x2 = 0.09303): 736.7 ± 2.2 kg/m3; mass density (38600 kPa, x2 = 0.2009): 740.8 ± 2.2 kg/m3; mass density (38600 kPa, x2 = 0.3051): 745 ± 2.1 kg/m3; mass density (38600 kPa, x2 = 0.417): 750 ± 2.1 kg/m3; mass density (38600 kPa, x2 = 0.512): 754.6 ± 2 kg/m3; mass density (38600 kPa, x2 = 0.5996): 759.9 ± 2 kg/m3; mass density (38600 kPa, x2 = 0.7052): 766.9 ± 1.9 kg/m3; mass density (38600 kPa, x2 = 0.7993): 773.9 ± 1.9 kg/m3; mass density (38600 kPa, x2 = 0.9039): 783.3 ± 1.8 kg/m3; mass density (39620 kPa, x2 = 0): 734.3 ± 2.3 kg/m3; mass density (39620 kPa, x2 = 0.09303): 737.4 ± 2.2 kg/m3; mass density (39620 kPa, x2 = 0.2009): 741.4 ± 2.2 kg/m3; mass density (39620 kPa, x2 = 0.3051): 745.6 ± 2.2 kg/m3; mass density (39620 kPa, x2 = 0.417): 750.6 ± 2.1 kg/m3; mass density (39620 kPa, x2 = 0.512): 755.3 ± 2.1 kg/m3; mass density (39620 kPa, x2 = 0.5996): 760.6 ± 2 kg/m3; mass density (39620 kPa, x2 = 0.7052): 767.5 ± 1.9 kg/m3; mass density (39620 kPa, x2 = 0.7993): 774.5 ± 1.9 kg/m3; mass density (39620 kPa, x2 = 0.9039): 783.9 ± 1.8 kg/m3

Source: the NIST ThermoML archive (doi:10.1016/j.jct.2007.04.005)
